# Values joined by “and” are separate entries in the source; they are usually repeats but may differ in a detail not shown here. Equal values may be shown once.
# System: tissue mRNA levels
# Test: Quantitative PCR of tissue gene expression in treated mice
# Type: in vivo, mouse
# Set-up: key to mRNA levels Scap / mRNA levels Insig1 / mRNA levels Ldlr / mRNA levels Mttp / mRNA levels Atgl / mRNA levels Tnfaip2 / mRNA levels Rxra / mRNA levels Srebf1 / mRNA levels Ucp2: mRNA level normalized to ribosomal L32 mRNA (internal control)
# Protocol: Total RNA from cells and tissues was extracted by Trizol (Invitrogen) and reverse-transcribed into cDNA using the prime script RT reagent kit with gDNA eraser (Takara). The mRNA levels were determined using the SYBR-green PCR kit (Takara) with ABIPRISM 7900HT Sequence detector (ABI) according to the manufacturer’s protocol. The quantitative qPCR primers used in this work are listed in Supplementary Table 1. Ribosomal L32 mRNA levels were used as an internal control.
# [1] = Figure 6c, liver of DIO mice, individual animals
# [2] = Figure 6e, BAT genes in DIO, individual animals
# [3] = Figure 6e, group mean of APC-treated mice
# [4] = Figure 6f, CRTC2KO mice, oral APC
# [5] = Figure 6f, CRTC2KO mice, oral APC, group mean, N 6
compound,measurement,setting,value
"CC(C)=CCc1cc(C=CC(=O)O)cc(CC=C(C)C)c1O [APC, 3,5-diprenyl-4-hydroxycinnamic acid]",mRNA levels Insig2b,[1],1.5012 and 1.204 and 1.275 and 1.326 and 1.226 and 1.358
same,mRNA levels Ldlr,[1],0.5776 and 0.5891 and 0.5493 and 0.4914 and 0.6354 and 0.4723
same,mRNA levels Lipg,[1],1.701 and 1.759 and 1.656 and 1.597 and 1.253 and 1.321
same,mRNA levels Lxra,[1],0.4169 and 0.5629 and 0.5095 and 0.7537 and 0.4614 and 0.533
same,mRNA levels Mgll,[1],1.478 and 2.215 and 1.692 and 2.155 and 1.663 and 2.019
same,mRNA levels Mttp,[1],0.5875 and 0.5564 and 0.479 and 0.4246 and 0.6126 and 0.6576
same,mRNA levels Pcsk9,[1],0.8854 and 0.7972 and 0.6933 and 0.8757 and 0.803 and 0.7825
same,mRNA levels Pgc-1a,[1],0.841 and 0.8137 and 0.7443 and 0.6176 and 0.7797 and 0.5053
same,mRNA levels Pgc-1b,[1],0.6848 and 0.6024 and 0.8301 and 0.5369 and 0.6396 and 0.6129
same,mRNA levels Scap,[1],0.7134 and 0.6924 and 0.8986 and 0.7526 and 0.8965 and 0.6035
same,mRNA levels Scd1,[1],1.593 and 1.385 and 1.755 and 1.2873 and 1.57 and 1.603
same,"relative mRNA levels Cpt1, Difference (Mean of VEH - Mean of APC)",Figure 6e,-0.4965
same,"relative mRNA levels Glut4, Difference (Mean of VEH - Mean of APC)",Figure 6e,-0.8396
same,"relative mRNA levels Hsl, Difference (Mean of VEH - Mean of APC)",Figure 6e,-0.512
same,"relative mRNA levels Mgl1, Difference (Mean of VEH - Mean of APC)",Figure 6e,-0.489
same,"relative mRNA levels Pgc-1α, Difference (Mean of VEH - Mean of APC)",Figure 6e,0.4001
same,"relative mRNA levels Pgc-1β, Difference (Mean of VEH - Mean of APC)",Figure 6e,0.2648
same,"relative mRNA levels Scd1, Difference (Mean of VEH - Mean of APC)",Figure 6e,0.2529
same,"relative mRNA levels Ucp1, Difference (Mean of VEH - Mean of APC)",Figure 6e,0.6029
same,"relative mRNA levels Ucp2, Difference (Mean of VEH - Mean of APC)",Figure 6e,-0.7752
same,"relative mRNA levels Ucp3, Difference (Mean of VEH - Mean of APC)",Figure 6e,-0.7811
same,"mRNA levels Rxrα, Mean of APC","Figure 6e, BAT genes in DIO, group mean, Mean of VEH 1.022",0.997
same,"mRNA levels Pparγ, Mean of APC","Figure 6e, BAT genes in DIO, group mean, Mean of VEH 1.045",1.136
same,"mRNA levels Pparα, Mean of APC","Figure 6e, BAT genes in DIO, group mean, Mean of VEH 1.047",1.002
same,"mRNA levels Srebf-1c, Mean of APC","Figure 6e, BAT genes in DIO, group mean, Mean of VEH 1.079",0.67
same,mRNA levels Cpt1,[2],1.405 and 1.301 and 1.366 and 1.861 and 1.273 and 1.67
same,mRNA levels Glut4,[2],2.222 and 2.223 and 2.091 and 1.366 and 1.861 and 1.914
same,mRNA levels Hsl,[2],1.929 and 1.285 and 1.044 and 1.492 and 1.691 and 1.784
same,mRNA levels Mgl1,[2],1.571 and 1.671 and 1.448 and 1.19 and 1.394 and 1.429
same,mRNA levels Pgc-1a,[2],0.4882 and 0.6962 and 0.7342 and 0.6823 and 0.3242 and 0.5895
same,mRNA levels Pgc-1b,[2],0.7936 and 0.7877 and 0.8205 and 0.6233 and 0.5976 and 0.7915
same,mRNA levels Ppara,[2],0.957 and 1.069 and 1.282 and 0.4348 and 0.8215 and 1.448
same,mRNA levels Pparg,[2],1.223 and 1.057 and 1.279 and 0.9002 and 1.182 and 1.178
same,mRNA levels Rxra,[2],1.299 and 0.7585 and 0.6344 and 1.152 and 1.145 and 0.9935
same,mRNA levels Scd1,[2],0.7542 and 0.5583 and 0.6317 and 0.6691 and 0.5321 and 0.7971
same,mRNA levels Srebf1,[2],0.76 and 0.6196 and 0.6214 and 0.595 and 0.7194 and 0.7042
same,mRNA levels Ucp1,[2],0.4272 and 0.4661 and 0.4353 and 0.3244 and 0.4398 and 0.6531
same,mRNA levels Ucp2,[2],1.948 and 2.049 and 1.871 and 1.366 and 1.861 and 1.31
same,mRNA levels Ucp3,[2],2.385 and 1.61 and 1.317 and 1.964 and 1.366 and 1.861
same,"relative mRNA levels Cpt1, Mean of APC",[3],1.479
same,"relative mRNA levels Glut4, Mean of APC",[3],1.946
same,"relative mRNA levels Hsl, Mean of APC",[3],1.538
same,"relative mRNA levels Mgl1, Mean of APC",[3],1.451
same,"relative mRNA levels Pgc-1α, Mean of APC",[3],0.5858
same,"relative mRNA levels Pgc-1β, Mean of APC",[3],0.7357
same,"relative mRNA levels Scd1, Mean of APC",[3],0.6571
same,"relative mRNA levels Ucp1, Mean of APC",[3],0.4576
same,"relative mRNA levels Ucp2, Mean of APC",[3],1.734
same,"relative mRNA levels Ucp3, Mean of APC",[3],1.751
same,"mRNA of Srebf-1c, Mean Diff. APC - VEH",[4],0.1559
same,"mRNA of Srebf-2, Mean Diff. APC - VEH",[4],-0.03887
same,"mRNA of Srebf-1c, Mean 1 (APC)",[5],0.6887
same,"mRNA of Srebf-2, Mean 1 (APC)",[5],0.7827

# Reference: paper PMC8752738, “A propolis-derived small molecule ameliorates metabolic syndrome in obese mice by targeting the CREB/CRTC2 transcriptional complex” (Nature Communications, 2022)
